Measurements taken from patent US20100168228A1, “NOVEL CHEMOTHERAPEUTIC AGENTS AGAINST INFLAMMATION AND CANCER” (RELIANCE LIFE SCIENCES PVT. LTD., priority 2006, published 2010).

Tests used:
Jurkat cells [1] = assay: Cytotoxicity assay (MTT), Jurkat; type: cell-based, human
Experimental: FIG. 8: CAMVE potentiates apoptosis induced by TNF or chemotherapeutic agents. A1. Jurkat cells were incubated at 37° C. with TNF, in the presence and absence of 10 μM of CAMVE for 72 h and the viable cells were assayed using MTT reagent. The results are shown as the mean±S.D. from triplicate culture. A2. Jurkat cells (1×10^6 cells/ml) were pretreated with CAMVE for 3 h as indicated and incubated with TNF for 24 hrs, and PARP cleavage was determined by FACS analysis as described in the “Materials and Methods”. M2 gated population represents the percentage apoptotic population B. SA-LPS/Jkt cells pretreated with 10 μM of CAMVE for 3 h, were treated with 1 μM of cis-plastin, doxorubicin, taxol or vincristine for 72 h. The cytotoxicity was then assayed by MTT method. Results are shown as the mean±S.D. from triplicate samples.
FIG. 11: Dose response for compound 27 induced loss of cell viability and cell proliferation in Jurkat cell line. […] Error bars indicate±S.D.
Cytotoxicity was assayed by the modified tetrazolium salt 3-(4,5-dimethylthiazol-2-yl)-2,5-diphenyltetrazolium bromide (MTT) assay as described by Plumb, J A et al. (Cancer Res. 1989 Aug. 15; 49(16):4435-4440). […]

TNFα = assay: Bioassay of TNFα production by LPS activated RAW 264.7 macrophages using L929 cell line; type: cell-based; settings: Mus musculus; L929 + ActD + supernatant from LPS + compound (10 μM) treated RAW 264.7 macrophage; crystal violet; mean ± S.D. of triplicate; read-out: PERCENTAGE CELL SURVIVAL ± S.D.
Experimental: Measurement of TNFα in culture medium or supernatant is performed using immunoassay and bioassay. Bioassay was used for the measurement of bioactive TNFα production in the culture medium.
TNFα secretion into the medium by LPS activated macrophage was assayed using L929 tumorigenic murine cells (ATCC) specifically sensitive to TNFα. L929 cell cytotoxicity assay was performed by a modified method (Sano et al., The Journal of Immunology, 1999, 163: 387-395 The Journal of Immunology, 1999, 163: 387-395) based on that described elsewhere (Flick D A, Gifford G E. J Immunol Methods. 1984 Mar. 30; 68(1-2): 167-175). Briefly, the L929 cells (log phase cells) were seeded into a flat bottom 96 well plates (6×10^4/well) in 100 μl volume of RPMI 1640 containing 2% FCS and incubated overnight at 37° C. in a 5% CO2 incubator. A working dilution of the culture supernatant collected from LPS (200 ng/ml) activated macrophage in a volume of 100 μl per well was first tested to obtain 70-75% cytotoxicity equivalent to […] of recombinant TNFα standard to the TNFα sensitive L929 cell line. After incubation of the L929 cells appropriate fixed dilution of the culture supernatant collected from the compound treated (10 μM) wells, containing the LPS stimulated macrophages in a volume of 100 μl with 2 μg/ml Actinomycin D (Act D) was taken and added to the L929 cells and the cells were incubated at room temperature for 15 min followed by 18 h incubation at 37° C. overnight with 5% CO2. On the next day the medium was removed and the cells were stained with 0.2% (w/v) crystal violet for 10 minutes. The wells were gently rinsed with water, and 33% acetic acid (100 μl/well) was added to extract the retained crystal violet. The absorbance at 570 nm was finally measured.
Tumor necrosis factor-α can cause direct cytotoxicity to the lung fibroblast cell line (L929). Bioassay of TNF α is designated on the basis of this cytotoxicity of TNF α, which can be used for the identification of murine TNF α activity in tissue culture supernatants. Culture supernatant collected from the synthetic molecules treated well containing LPS stimulated macrophage modulated the extent of cytotoxicity to the L929 cells (see Table 1).

RAW 264.7 cells = assay: Nitrite quantification (Griess) in LPS stimulated macrophages; type: cell-based, mouse; settings: for CONCENTRATION OF NITRITE μM ± SD: RAW 264.7 + LPS (200 ng/ml) + 10 μM compound, 24 h, LPS + DMSO control 14.560, basal 0.782
Experimental: NO2^− accumulation was used as an indicator of Nitric Oxide (NO) production in the medium as described previously (Green et al., 1982 Anal Biochem 126, 131-138). […] The isolated supernatants were mixed with an equal volume of Griess reagent (1% sulfanilamide, 0.1% naphthylenediamine dihydrochloride, and 2% phosphoric acid) and incubated at room temperature for 15 min. NaNO2 was used to generate a standard curve, and nitrite production was determined by measuring the optical density at 540 nm.
To estimate the anti-inflammatory effects of all the synthetic molecules listed in this study, we measured the accumulation of nitrite, the stable metabolite of NO, in the culture media using Griess reagent.
To investigate the effect of CAMVE on NO production, we measured the accumulation of nitrite, the stable metabolite of NO, in the culture media using Griess reagent. To investigate the effect of CAMVE on NO production, Raw 264.7 cells, pretreated with indicated concentrations of CAMVE for 1 h were incubated with LPS (250 ng/ml) for 24 h.

Jurkat cells [2] = assay: PARP cleavage assay using flow cytometry, Jurkat; type: cell-based, human
Experimental: FIG. 8: CAMVE potentiates apoptosis induced by TNF or chemotherapeutic agents. A1. Jurkat cells were incubated at 37° C. with TNF, in the presence and absence of 10 μM of CAMVE for 72 h and the viable cells were assayed using MTT reagent. The results are shown as the mean±S.D. from triplicate culture. A2. Jurkat cells (1×10^6 cells/ml) were pretreated with CAMVE for 3 h as indicated and incubated with TNF for 24 hrs, and PARP cleavage was determined by FACS analysis as described in the “Materials and Methods”. […]
FIG. 15: Induction of apoptosis and PARP cleavage by compound 27. Jurkat cells were treated with 100 and 500 nM of the compound for indicated time period and PARP cleavage was determined using FACS analysis as described in the “Materials and Methods”. […]
Extent of PARP cleavage is determined using polyclonal antibody specifically recognizing the 85 kDa fragment of cleaved PARP (NSB 699 Novus Biologicals) and can be used as a marker for detecting apoptotic cells. […] Cells were washed twice with wash buffer (PBS+1% heat inactivated FBS) and analysed using FACS.
PARP Cleavage Assay using Flow Cytometry: Extent of PARP cleavage is determined using polyclonal antibody specifically recognizing the 85 kDa fragment of cleaved PARP (NSB 699 Novus Biologicals) and can be used as a marker for detecting apoptotic cells. […]

In the case of `COC(=O)c1ccc(OC(=O)/C=C/c2ccc(O)c(O)c2)c(OC)c1` [compound 1, Methyl 4-{[(2E)-3-(3,4-dihydroxyphenyl)prop-2-enoyl]oxy}-3-methoxybenzoate], the “cytotoxicity induced by chemotherapeutic agents (MTT)” value (Jurkat cells [1]; SA-LPS (100 ng/ml) activated Jurkat, 10 μM CAMVE 3 h, then 1 μM cis-platin, doxorubicin, taxol or vincristine 72 h) is reported as “significantly enhanced by CAMVE pretreatment”, the viability at 10 µM (TNFα) is reported as 73.2 ± 1.77% and the “CONCENTRATION OF NITRITE μM ± SD” value (RAW 264.7 cells) is reported as 1.849 ± 0.214 µM. For the same compound, the “LPS induced nitrite production” value (RAW 264.7 cells; Raw 264.7 pretreated 1 h, LPS 250 ng/ml 24 h) was “inhibited by CAMVE treatment in a dose-dependent manner” and the “TNF induced PARP cleavage (apoptosis)” value (Jurkat cells [2]; pretreated 3 h, TNF 24 h) was “significant potentiation of PARP cleavage in a dose dependent manner”.
With `COc1cc([C@@H]2Oc3c(OC)cc(/C=C/C(=O)O)cc3[C@H]2C(=O)O)ccc1O` [compound 27, 5-[(E)-2-carboxyvinyl]-2β-(4-hydroxy-3-methoxyphenyl)-7-methoxy-2,3-dihydro-1-benzofuran-3α-carboxylic acid] the GI50 (Jurkat cells [1]; Homo sapiens, Jurkat, MTT, 24 h and 48 h, read-out: GI50 (concentration causing 50% growth inhibition)) was roughly 100 nM, the viability at 10 µM (TNFα) was 46.5 ± 1.02% and the “CONCENTRATION OF NITRITE μM ± SD” value (RAW 264.7 cells) was 5.027 ± 0.200 µM. The PARP cleavage (Jurkat cells [2]; 100 nM and 500 nM, increasing with time) was “significant PARP cleavage was achieved at 100 nM and 500 nM”.
